Test results as given in US7078406B2, “Substituted diphenyloxazoles, the synthesis thereof, and the use thereof as fluorescence probes” (Johnson & Johnson Pharmaceutical Research & Development, …, priority 2001, dated 2006).
“Also recorded” adds a separate entry of the source.

Experiments:
PPAR-gamma = target: T1, PPAR-gamma (Homo sapiens, UniProt P37231); assay: Fluorescence curves on heating in a Thermofluor instrument (protein unfolding transition); details: 100 μM dye, 0.2 mg/mL protein, 25 mM HEPES pH 7.9, 200 mM NaCl, 5 mM dithiothreitol, 1 mM EDTA, 384-well plate
T1 sequence (P37231 1-505): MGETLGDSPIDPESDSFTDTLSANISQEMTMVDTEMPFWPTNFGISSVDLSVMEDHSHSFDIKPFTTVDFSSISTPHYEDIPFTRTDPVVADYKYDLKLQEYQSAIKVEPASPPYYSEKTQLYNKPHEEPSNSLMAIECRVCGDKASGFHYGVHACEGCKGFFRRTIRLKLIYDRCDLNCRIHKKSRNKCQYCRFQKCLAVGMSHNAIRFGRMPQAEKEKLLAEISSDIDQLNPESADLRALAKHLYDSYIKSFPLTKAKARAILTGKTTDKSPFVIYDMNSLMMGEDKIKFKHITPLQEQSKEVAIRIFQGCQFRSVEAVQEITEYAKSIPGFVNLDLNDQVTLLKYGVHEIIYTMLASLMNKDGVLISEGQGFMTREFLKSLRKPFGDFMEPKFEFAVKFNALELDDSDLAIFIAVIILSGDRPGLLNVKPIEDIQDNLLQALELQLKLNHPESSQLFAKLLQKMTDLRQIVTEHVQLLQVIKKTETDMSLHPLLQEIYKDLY
From the text: FIG. 3 provides the individual fluorescent curves for three dyes 4-[5-(4-dimethylaminophenyl)oxazol-2-yl]-N-(2-guanidinoethyl)-benzene-sulfonamide, 5-(4″-dimethylaminophenyl)-2-(4′-phenyl)oxazole sulfonate, and 1,8-anilino-napthylene sulfonate) when analyzed in a Thermofluor® instrument using the protein PPAR-gamma as described in Example 3.
4-[5-(4-dimethylaminophenyl)oxazol-2-yl]-N-(2-guanidinoethyl)-benzenesulfonamide, 5-(4″-dimethylaminophenyl)-2-(4′-phenyl)oxazole sulfonate, and 1,8-anilino-napthylene sulfonate were mixed with a protein, PPAR-gamma, each in separate wells of a polypropylene 384-well plate. Each solution consisted of 100 μM of each dye mixed with 0.2 mg/mL protein in a buffer consisting of 25 mM HEPES pH 7.9, 200 mM NaCl, 5 mM dithiothreitol, and 1 mM EDTA. Individual fluorescence curves generated by heating to different temperatures in a Thermofluor® instrument are shown in FIG. 3.

thrombin = thrombin (Homo sapiens, UniProt P00734); assay: Fluorescence emission spectra of dye mixed with native and heat-unfolded thrombin; details: for emission maximum (comparison dyes): comparison value, conditions not stated
Description: FIG. 2 provides the fluorescence emission spectra of 4-[5-(4-dimethylaminophenyl)oxazol-2-yl]-N-(2-guanidinoethyl)-benzenesulfonamide (10 μM) mixed with thrombin (0.1 mg/mL) in buffer (50 mM HEPES, pH 7.5, 150 mM NaCl). The emission spectrum indicated by the squares was acquired with native (folded) thrombin, immediately after preparing the solution. The emission spectrum indicated by the triangles was obtained after heating the solution to 80° C. for five minutes to unfold the thrombin protein.
(§1) 4-[5-(4-dimethylaminophenyl)oxazol-2-yl]-N-(2-guanidinoethyl)-benzenesulfonamide was mixed with different solvents to yield a final dye concentration of 10 μM. The spectra of this dye in methanol (MeOH), dimethyl sulfoxide (DMSO), and aqueous buffer (50 mM HEPES, pH7.5, 150 mM sodium chloride) are shown in FIG. 1. This figure illustrates the marked enhancement in emission intensity (200–500 fold) observed for this dye when it is shifted from an aqueous environment to a nonaqueous environment. The 4-[5-(4-dimethylaminophenyl)oxazol-2-yl]-N-(2-guanidinoethyl)benzenesulfonamide was mixed with a 0.1 mg/mL solution of thrombin, a protein, in buffer (50 mM HEPES, pH7.5, 150 mM sodium chloride), to yield a final dye concentration of 10 μM. The fluorescence emission spectra of this solution were recorded both immediately after mixing and also following heating of the solution to 80° C. for 5 minutes.

[1] = Fluorescence emission spectra of the dye in different solvents; type: physicochemical; details: 10 μM dye; shifted from aqueous buffer (50 mM HEPES, pH7.5, 150 mM sodium chloride) to nonaqueous environment (MeOH, DMSO)
Description: FIG. 1A provides the fluorescence emission spectra of 4-[5-(4-dimethylaminophenyl)oxazol-2-yl]-N-(2-guanidinoethyl)-benzenesulfonamide in methanol and in dimethylsulfoxide. Also provided is the fluroescence emission spectrum of the buffer. FIG. 1B provides part of the spectrum of FIG. 1A, showing the range from 0 to 10,000 cps.
as §1

measurable unfolding transition of the protein (PPAR-gamma)	emission maximum (comparison dyes) (thrombin)	emission maximum of dye bound to unfolded protein (thrombin; 10 μM dye, 0.1 mg/mL thrombin, 50 mM HEPES pH7.5, 150 mM NaCl, after heating to 80° C. for 5 minutes) [nm]	enhancement in emission intensity [1]	SMILES	change in fluorescence emission on binding to unfolded protein (thrombin; 10 μM dye, 0.1 mg/mL thrombin, after heating to 80° C. for 5 minutes vs native)
fail to produce a measurable transition	approximately 460 nm	–	–	O=S(=O)(O)c1cccc2cccc(Nc3ccccc3)c12 [1,8-anilinonaphthylene sulfonate, reference compound]	–
can be readily monitored	–	520	200–500 fold	CN(C)c1ccc(-c2cnc(-c3ccc(S(=O)(=O)NCCNC(=N)N)cc3)o2)cc1 [4-[5-(4-dimethylaminophenyl)oxazol-2-yl]-N-(2-guanidinoethyl)benzenesulfonamide]	substantial enhancement in fluorescence emission; also recorded: increase in fluorescence emission
fail to produce a measurable transition	approximately 460 nm	–	–	CN(C)c1ccc(-c2cnc(-c3ccc(S(=O)(=O)O)cc3)o2)cc1 [5-(4″-dimethylaminophenyl)-2-(4′-phenyl)oxazole sulfonate, reference compound]	–
